Here are results for 2 compounds from PMC4661694, “Aminopeptidase T of M29 Family Acts as A Novel Intracellular Virulence Factor for Listeria monocytogenes Infection” (Scientific Reports, 2015).

In the assay the target is T1, Lmo1603 (Listeria monocytogenes, UniProt Q8Y6T0).
T1 construct: tag removal not mentioned
Nature of the assay: p-nitroaniline release, absorbance […] nm. Format: biochemical. As to conditions: 50 mM Tris-HCl pH 8.5, 2 mM substrate, 5 uM enzyme, 12 h.

Each structure is given as a SMILES string.

T1 sequence (Q8Y6T0 entry or part of it): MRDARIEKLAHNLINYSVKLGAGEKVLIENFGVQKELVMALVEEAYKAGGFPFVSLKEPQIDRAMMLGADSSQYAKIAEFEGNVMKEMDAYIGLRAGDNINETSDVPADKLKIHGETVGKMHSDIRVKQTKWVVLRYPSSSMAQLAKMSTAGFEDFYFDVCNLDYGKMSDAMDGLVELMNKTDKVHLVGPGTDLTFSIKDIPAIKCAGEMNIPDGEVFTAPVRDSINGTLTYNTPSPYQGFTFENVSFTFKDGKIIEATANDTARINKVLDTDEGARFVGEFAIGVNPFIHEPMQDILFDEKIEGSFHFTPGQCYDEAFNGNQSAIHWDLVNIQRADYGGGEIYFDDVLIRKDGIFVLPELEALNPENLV

As for `N=C(N)NCCC[C@H](N)C(=O)Nc1ccc([N+](=O)[O-])cc1` [Arg-pNA], the “p-nitroaniline release, absorbance 405 nm” value (cobalt-activated enzyme) is “Lmo1603 showed the highest activity towards Arg-pNA, followed by Leu-pNA and Ala-pNA”.
Take `CC(C)C[C@H](N)C(=O)Nc1ccc([N+](=O)[O-])cc1` [Leu-pNA]: the “p-nitroaniline release, absorbance 405 nm” value was “Lmo1603 showed the highest activity towards Arg-pNA, followed by Leu-pNA and Ala-pNA”.
